The results in this text go back to ChEMBL document CHEMBL1159053, “Synthesis and antifungal activities in vitro of novel pyrazino [2,1-a] isoquinolin derivatives” (2010).

The MIC80 is the lowest concentration that inhibits either 80% of growth or 80% of the strains tested, depending on the study. The low end stands for greater potency, the high end for weaker potency.

SMILES strings stand for the structures. Values after ≈ are worked out from the molar mass of the structure shown. Some results are limits rather than exact numbers.

The first experiment relates to Candida albicans. Nature of the experiment: Antifungal activity against Candida albicans by serial dilution method. The class given is functional.
As for `CCCCCCCCCCN1CCc2cc(O)c(O)cc2C1`, the MIC80 turned out to be 64 mg/L (≈ 210 µM).
The same measure, in the same setting: the value for `CCCCN1CCN2CCc3ccc(F)cc3C2C1` (stereo not given) was 64 mg/L (≈ 244 µM); that for `CCCCCCCCN1CC(=O)N2CCc3ccc(F)cc3C2C1` (stereo not given) was more than 64 mg/L.
Same read-out and setting: the value for `CCCCN1CC(=O)N2CCc3cc(OC)c(OC)cc3C2C1` (stereo not given) was more than 64 mg/L.
Still for that read-out and setting: the value for `CCCCN1CC(=O)N2CCc3ccc(F)cc3C2C1` (stereo not given) was more than 64 mg/L; that for `CCCCCCCCN1CCN2CCc3cc(O)c(O)cc3C2C1` (stereo not given) was 16 mg/L (≈ 48.1 µM); that for `CCCCCCCCCN1CC(=O)N2CCc3cc(OC)c(OC)cc3C2C1` (stereo not given) was 64 mg/L (≈ 165 µM).
In turn, `CCCCCCCCN1CCN2CCc3cc(OC)c(OC)cc3C2C1` (stereo not given) displayed an MIC80 of 32 mg/L (≈ 88.8 µM).
Compound `CCCCCCCCN1CCN2CCc3ccc(F)cc3C2C1` (stereo not given) returned an MIC80 of 16 mg/L (≈ 50.2 µM).
On the same count and under the same terms, to `CCCCCCCCCN1CCN2CCc3cc(O)c(O)cc3C2C1` (stereo not given) belongs 8 mg/L (≈ 23.1 µM).
The compound `CCCCCCCCCCCCN1CC(=O)N2CCc3cc(OC)c(OC)cc3C2C1` (stereo not given) returned an MIC80 of more than 64 mg/L.

For another experiment, the system named is Nannizzia gypsea. In words: Antifungal activity against Microsporum gypseum by serial dilution method. The class given is functional.
With `CCCCCCCCCCN1CCc2cc(O)c(O)cc2C1`, the MIC80 is 16 mg/L (≈ 52.4 µM).
On the same count and under the same terms, to `CCCCN1CCN2CCc3ccc(F)cc3C2C1` (stereo not given) belongs 4 mg/L (≈ 15.2 µM).
For `CCCCCCCCN1CC(=O)N2CCc3ccc(F)cc3C2C1` (stereo not given), the MIC80 worked out at 16 mg/L (≈ 48.1 µM).
In the case of `CCCCN1CC(=O)N2CCc3cc(OC)c(OC)cc3C2C1` (stereo not given), the MIC80 was more than 64 mg/L.
On the same count and under the same terms, the value for `CCCCN1CC(=O)N2CCc3ccc(F)cc3C2C1` (stereo not given) was more than 64 mg/L; that for `CCCCCCCCN1CCN2CCc3cc(O)c(O)cc3C2C1` (stereo not given) was 32 mg/L (≈ 96.2 µM).
Compound `CCCCCCCCCN1CC(=O)N2CCc3cc(OC)c(OC)cc3C2C1` (stereo not given) displayed an MIC80 of 2 mg/L (≈ 5.15 µM).
Still for that read-out and setting: the value for `CCCCCCCCN1CCN2CCc3cc(OC)c(OC)cc3C2C1` (stereo not given) was 4 mg/L (≈ 11.1 µM); that for `CCCCCCCCN1CCN2CCc3ccc(F)cc3C2C1` (stereo not given) was 4 mg/L (≈ 12.6 µM).
For the compound `CCCCCCCCCN1CCN2CCc3cc(O)c(O)cc3C2C1` (stereo not given), the MIC80 was found to be 8 mg/L (≈ 23.1 µM).
Still for that read-out and setting: to `CCCCCCCCCCCCN1CC(=O)N2CCc3cc(OC)c(OC)cc3C2C1` (stereo not given) belongs 64 mg/L (≈ 149 µM).

The next experiment has as its system Trichophyton rubrum. In words: Antifungal activity against Trichophyton rubrum by serial dilution method. The class given is functional.
Take `CCCCCCCCCCN1CCc2cc(O)c(O)cc2C1`: the MIC80 was 32 mg/L (≈ 105 µM).
The same measure, in the same setting: the value for `CCCCN1CCN2CCc3ccc(F)cc3C2C1` (stereo not given) was more than 64 mg/L.
The same measure, in the same setting: to `CCCCCCCCN1CC(=O)N2CCc3ccc(F)cc3C2C1` (stereo not given) belongs 16 mg/L (≈ 48.1 µM).
On the same count and under the same terms, to `CCCCN1CC(=O)N2CCc3cc(OC)c(OC)cc3C2C1` (stereo not given) belongs more than 64 mg/L; to `CCCCN1CC(=O)N2CCc3ccc(F)cc3C2C1` (stereo not given), 64 mg/L (≈ 232 µM); to `CCCCCCCCN1CCN2CCc3cc(O)c(O)cc3C2C1` (stereo not given), 16 mg/L (≈ 48.1 µM).
On to `CCCCCCCCCN1CC(=O)N2CCc3cc(OC)c(OC)cc3C2C1` (stereo not given), for which the MIC80 was 32 mg/L (≈ 82.4 µM).
On the same count and under the same terms, to `CCCCCCCCN1CCN2CCc3cc(OC)c(OC)cc3C2C1` (stereo not given) belongs 16 mg/L (≈ 44.4 µM); to `CCCCCCCCN1CCN2CCc3ccc(F)cc3C2C1` (stereo not given), 8 mg/L (≈ 25.1 µM).
The same measure, in the same setting: the value for `CCCCCCCCCN1CCN2CCc3cc(O)c(O)cc3C2C1` (stereo not given) was 8 mg/L (≈ 23.1 µM); that for `CCCCCCCCCCCCN1CC(=O)N2CCc3cc(OC)c(OC)cc3C2C1` (stereo not given) was more than 64 mg/L.

The test system of the next experiment is Cryptococcus neoformans. Nature of the experiment: Antifungal activity against Cryptococcus neoformans by serial dilution method. The class given is functional.
`CCCCCCCCCCN1CCc2cc(O)c(O)cc2C1` came in with an MIC80 of 16 mg/L (≈ 52.4 µM).
Same read-out and setting: to `CCCCN1CCN2CCc3ccc(F)cc3C2C1` (stereo not given) belongs more than 64 mg/L.
On the same count and under the same terms, the value for `CCCCCCCCN1CC(=O)N2CCc3ccc(F)cc3C2C1` (stereo not given) was 16 mg/L (≈ 48.1 µM); that for `CCCCN1CC(=O)N2CCc3cc(OC)c(OC)cc3C2C1` (stereo not given) was 16 mg/L (≈ 50.2 µM).
Same read-out and setting: the value for `CCCCN1CC(=O)N2CCc3ccc(F)cc3C2C1` (stereo not given) was 32 mg/L (≈ 116 µM); that for `CCCCCCCCN1CCN2CCc3cc(O)c(O)cc3C2C1` (stereo not given) was 2 mg/L (≈ 6.02 µM); that for `CCCCCCCCCN1CC(=O)N2CCc3cc(OC)c(OC)cc3C2C1` (stereo not given) was 4 mg/L (≈ 10.3 µM).
The compound `CCCCCCCCN1CCN2CCc3cc(OC)c(OC)cc3C2C1` (stereo not given) came in with an MIC80 of 8 mg/L (≈ 22.2 µM).
Same read-out and setting: the value for `CCCCCCCCN1CCN2CCc3ccc(F)cc3C2C1` (stereo not given) was 4 mg/L (≈ 12.6 µM); that for `CCCCCCCCCN1CCN2CCc3cc(O)c(O)cc3C2C1` (stereo not given) was 4 mg/L (≈ 11.5 µM); that for `CCCCCCCCCCCCN1CC(=O)N2CCc3cc(OC)c(OC)cc3C2C1` (stereo not given) was 32 mg/L (≈ 74.3 µM).

The test system of a further experiment is Aspergillus fumigatus. Nature of the experiment: Antifungal activity against Aspergillus fumigatus by serial dilution method. The class given is functional.
`CCCCCCCCCCN1CCc2cc(O)c(O)cc2C1` showed an MIC80 of 64 mg/L (≈ 210 µM).
On the same count and under the same terms, the value for `CCCCN1CCN2CCc3ccc(F)cc3C2C1` (stereo not given) was more than 64 mg/L.
Same read-out and setting: to `CCCCCCCCN1CC(=O)N2CCc3ccc(F)cc3C2C1` (stereo not given) belongs 32 mg/L (≈ 96.3 µM); to `CCCCN1CC(=O)N2CCc3cc(OC)c(OC)cc3C2C1` (stereo not given), more than 64 mg/L; to `CCCCN1CC(=O)N2CCc3ccc(F)cc3C2C1` (stereo not given), more than 64 mg/L.
Same read-out and setting: to `CCCCCCCCN1CCN2CCc3cc(O)c(O)cc3C2C1` (stereo not given) belongs 64 mg/L (≈ 192 µM); to `CCCCCCCCCN1CC(=O)N2CCc3cc(OC)c(OC)cc3C2C1` (stereo not given), 32 mg/L (≈ 82.4 µM); to `CCCCCCCCN1CCN2CCc3cc(OC)c(OC)cc3C2C1` (stereo not given), 8 mg/L (≈ 22.2 µM).
`CCCCCCCCN1CCN2CCc3ccc(F)cc3C2C1` (stereo not given) returned an MIC80 of 32 mg/L (≈ 100 µM).
Same read-out and setting: to `CCCCCCCCCN1CCN2CCc3cc(O)c(O)cc3C2C1` (stereo not given) belongs 64 mg/L (≈ 185 µM); to `CCCCCCCCCCCCN1CC(=O)N2CCc3cc(OC)c(OC)cc3C2C1` (stereo not given), more than 64 mg/L.
